Source: ChEMBL document CHEMBL5126602, “Polo-like Kinase 1 Inhibitors in Human Cancer Therapy: Development and Therapeutic Potential” (J Med Chem, 2022)
pEC50, pIC50: −log10 of the molar value. Each block holds one molecule with its values, some of them ahead of it. Numbered stars: 1 amine (or outer) side, 2 acyl side, 3 side chain; on linkers, the order of the positions; unused ones are H or OH. Square brackets hold non-standard residues; d marks the D form. Peptide text beside a SMILES is read from it. X1 = O=C([C@H](Cc1cncn1CCCCc1cn(Cc2ccc(Oc3ccccc3)cc2F)nn1)N[*:1])[*:2]; pT = C[C@@H](OP(=O)(O)O)[C@H](N)C(=O)O

Assays:
[1] = target: T1, Serine/threonine-protein kinase PLK1 (Homo sapiens, UniProt P53350); assay: Inhibition of PLK1 PBD (unknown origin) dependent binding
T1 sequence (P53350 whole entry): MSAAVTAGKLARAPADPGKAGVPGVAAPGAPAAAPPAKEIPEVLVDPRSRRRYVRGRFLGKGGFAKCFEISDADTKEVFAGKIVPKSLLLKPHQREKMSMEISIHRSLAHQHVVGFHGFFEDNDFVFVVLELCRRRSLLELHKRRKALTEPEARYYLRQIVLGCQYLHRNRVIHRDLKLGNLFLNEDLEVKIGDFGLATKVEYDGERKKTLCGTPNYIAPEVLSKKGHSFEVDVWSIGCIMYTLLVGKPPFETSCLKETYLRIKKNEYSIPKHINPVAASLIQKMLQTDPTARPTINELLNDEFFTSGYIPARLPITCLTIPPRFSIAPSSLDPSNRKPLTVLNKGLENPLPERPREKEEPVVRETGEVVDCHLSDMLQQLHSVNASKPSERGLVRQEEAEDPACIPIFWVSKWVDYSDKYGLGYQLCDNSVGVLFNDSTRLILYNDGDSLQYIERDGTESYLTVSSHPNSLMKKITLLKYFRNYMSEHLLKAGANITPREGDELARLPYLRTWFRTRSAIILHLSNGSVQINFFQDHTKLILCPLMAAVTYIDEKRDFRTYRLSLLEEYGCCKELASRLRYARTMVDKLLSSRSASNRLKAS

[2] = target: T2, Serine/threonine-protein kinase PLK3 (Homo sapiens, UniProt Q9H4B4); assay: Inhibition of PLK3 (unknown origin) in the presence of ATP by ADP-Glo-kinase assay
Target sequence in this assay (Q9H4B4 whole entry): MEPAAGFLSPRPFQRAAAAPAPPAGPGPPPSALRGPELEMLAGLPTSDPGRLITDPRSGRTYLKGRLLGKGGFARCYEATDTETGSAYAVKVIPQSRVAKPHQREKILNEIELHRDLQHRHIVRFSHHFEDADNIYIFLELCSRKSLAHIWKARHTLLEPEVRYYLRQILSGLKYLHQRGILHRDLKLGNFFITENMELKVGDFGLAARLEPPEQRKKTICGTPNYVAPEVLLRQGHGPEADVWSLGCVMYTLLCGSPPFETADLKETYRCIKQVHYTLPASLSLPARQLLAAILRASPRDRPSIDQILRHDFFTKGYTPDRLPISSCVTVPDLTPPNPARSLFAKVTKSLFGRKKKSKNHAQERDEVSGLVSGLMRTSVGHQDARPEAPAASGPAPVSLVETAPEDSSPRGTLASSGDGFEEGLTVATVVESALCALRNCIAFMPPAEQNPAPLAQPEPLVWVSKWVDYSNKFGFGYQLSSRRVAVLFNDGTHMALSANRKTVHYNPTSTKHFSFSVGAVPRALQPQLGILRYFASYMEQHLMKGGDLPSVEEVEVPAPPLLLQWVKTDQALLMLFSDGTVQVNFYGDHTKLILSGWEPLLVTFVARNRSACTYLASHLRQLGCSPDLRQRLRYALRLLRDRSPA

[3] = target: T3, Serine/threonine-protein kinase PLK2 (Homo sapiens, UniProt Q9NYY3); assay: Inhibition of PLK2 (unknown origin) in the presence of ATP by ADP-Glo-kinase assay
T3 sequence (Q9NYY3 whole entry): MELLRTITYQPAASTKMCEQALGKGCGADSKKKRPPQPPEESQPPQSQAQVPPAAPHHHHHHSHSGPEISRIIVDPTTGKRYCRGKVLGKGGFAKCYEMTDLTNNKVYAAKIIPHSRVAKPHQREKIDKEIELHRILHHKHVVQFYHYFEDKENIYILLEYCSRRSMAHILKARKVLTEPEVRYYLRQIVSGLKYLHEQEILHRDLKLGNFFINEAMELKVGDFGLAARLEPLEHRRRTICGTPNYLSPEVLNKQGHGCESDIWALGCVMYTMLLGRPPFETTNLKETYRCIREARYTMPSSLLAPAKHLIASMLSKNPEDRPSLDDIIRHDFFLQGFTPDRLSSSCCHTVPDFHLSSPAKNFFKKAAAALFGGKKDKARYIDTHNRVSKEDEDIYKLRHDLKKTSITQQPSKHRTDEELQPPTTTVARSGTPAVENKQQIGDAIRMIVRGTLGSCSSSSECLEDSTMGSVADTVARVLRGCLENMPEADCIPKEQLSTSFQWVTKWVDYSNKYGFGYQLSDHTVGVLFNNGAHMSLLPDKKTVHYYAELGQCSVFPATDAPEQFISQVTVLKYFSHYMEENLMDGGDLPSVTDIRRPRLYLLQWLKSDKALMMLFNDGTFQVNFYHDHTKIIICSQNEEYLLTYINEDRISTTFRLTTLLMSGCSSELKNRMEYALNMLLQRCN

[4] = target: T1, Serine/threonine-protein kinase PLK1; assay: Inhibition of PLK1 (unknown origin) in the presence of ATP by ADP-Glo-kinase assay
[5] = target: T3, Serine/threonine-protein kinase PLK2; assay: Inhibition of Myc-tagged PLK2 PBD (unknown origin) expressed in HEK293T cells using 5CF-GPMQTSpTPKNG-NH2 as substrate preincubated for 30 mins followed by substrate addition and measured after 30 mins by fluorescence polarization assay
[6] = Solubility of the compound; assay type: physicochemical
[7] = Half-life in rat liver microsomes; assay type: ADME, Microsome
[8] = target: T1, Serine/threonine-protein kinase PLK1; assay: Inhibition of biotin labelled PoloBoxtide binding to GST/His-fused full length PLK1 (unknown origin) expressed in baculovirus infected Sf9 cells
[9] = target: T2, Serine/threonine-protein kinase PLK3; assay: Inhibition of 5-carboxyfluorescein-GPLATSpTPKNG-OH peptide binding to PLK3 (335 to 646 residues) PBD (unknown origin) at 100 uM preincubated for 1 hrs with compound followed by peptide addition and measured after 1 hrs by fluorescence polarization assay; conditions: time 2.0 hrs
Target sequence in this assay (Q9H4B4 whole entry, looked up): as the sequence (Q9H4B4 whole entry) above

HeLa [10] = assay: Antiproliferative activity against human HeLa cells assessed as inhibition of cell proliferation incubated for 24 hrs by BCA assay; assay type: functional, cell-based
[11] = target: T1, Serine/threonine-protein kinase PLK1; assay: Inhibition of 5-carboxyfluoresceinGPMQSpTPLNG-OH peptide binding to PLK1 (326 to 603 residues) PBD (unknown origin) preincubated for 1 hrs with compound followed by peptide addition and measured after 1 hrs by fluorescence polarization assay
[12] = target: T3, Serine/threonine-protein kinase PLK2; assay: Inhibition of 5-carboxyfluorescein-GPMQTSpTPKNG-OH peptide binding to PLK2 (355 to 685 residues) PBD (unknown origin) preincubated for 1 hrs with compound followed by peptide addition and measured after 1 hrs by fluorescence polarization assay
MV4-11 = assay: Antiproliferative activity against human MV4-11 cells assessed as inhibition of cell growth incubated for 24 hrs by CCK-8 assay; assay type: functional, cell-based; conditions: MV4-11, 24 h
[13] = target: T1, Serine/threonine-protein kinase PLK1; assay: Inhibition of biotinylated p-T78 peptide binding to human HA-EGFP-PLK1 expressed in HEK293-A cells using TMB as substrate incubated for 1 hrs by ELISA plate reader based analysis
[14] = target: T1, Serine/threonine-protein kinase PLK1; assay: Inhibition of 5-carboxyfluoresceinGPMQSpTPLNG-OH peptide binding to N-terminal His7-tagged human PLK1 (326 to 603 residues) PBD expressed in Escherichia coli BL21 (DE3) cells preincubated for 1 hrs with compound followed by peptide addition and measured after 1 hrs by fluorescence polarization assay
[15] = target: T3, Serine/threonine-protein kinase PLK2; assay: Inhibition of 5-carboxyfluorescein-GPMQTSpTPKNG-OH peptide binding to C-terminal 6His-tagged human PLK2 (355 to 685 residues) PBD expressed in Rosetta BL21 (DE3) cells preincubated for 1 hrs with compound followed by peptide addition and measured immediately by fluorescence polarization assay
HeLa [16] = assay: Antiproliferative activity against human HeLa cells assessed as inhibition of cell proliferation incubated for 72 hrs by MTT assay; assay type: functional, cell-based
[17] = target: T1, Serine/threonine-protein kinase PLK1; assay: Inhibition of biotinylated PLHSpT peptide binding to n-terminal GST-tagged full length human PLK1 PBD preincubated with compound for 30 mins followed by peptide addition and measured after 1 hrs by time-resolved fluorescence energy transfer assay
HT-29 = assay: Antiproliferative activity against human HT-29 cells assessed as reduction in cell viability incubated for 72 hrs; assay type: functional, cell-based; conditions: HT-29, 72 h
Detroit 562 = assay: Antiproliferative activity against human Detroit 562 cells assessed as reduction in cell viability incubated for 72 hrs; assay type: functional, cell-based; conditions: Detroit 562, 72 h
MCF7 = assay: Antiproliferative activity against human MCF7 cells assessed as reduction in cell proliferation incubated for 72 hrs; assay type: functional, cell-based; conditions: MCF7, 72 h
[18] = target: T1, Serine/threonine-protein kinase PLK1; assay: Inhibition of PLK1 in thymidine synchronized human HeLa cells using casein as substrate preincubated with compound for 13 hrs followed by substrate addition and measured after 12 to 36 hrs in the presence of [gamma33P]ATP by autoradiography based Western blot analysis; assay type: cell-based
U2OS = assay: Antiproliferative activity against human U2OS cells assessed as reduction in cell viability incubated for 72 hrs; assay type: functional, cell-based
HCT-15 = assay: Antiproliferative activity against human HCT-15 cells assessed as reduction in cell viability incubated for 72 hrs; assay type: functional, cell-based; conditions: HCT-15, 72 h
A-431 = assay: Antiproliferative activity against human A-431 cells assessed as reduction in cell proliferation incubated for 72 hrs; assay type: functional, cell-based; conditions: A-431, 72 h
LN-229 = assay: Antiproliferative activity against human LN-229 cells assessed as reduction in cell viability incubated for 72 hrs; assay type: functional, cell-based; conditions: LN-229, 72 h
SKW 6.4 = assay: Antiproliferative activity against human SKW 6.4 cells assessed as reduction in cell viability incubated for 72 hrs; assay type: functional, cell-based; conditions: SKW 6.4, 72 h
SK-OV-3 = assay: Antiproliferative activity against human SK-OV-3 cells assessed as reduction in cell viability incubated for 72 hrs; assay type: functional, cell-based; conditions: SK-OV-3, 72 h
PC-3 = assay: Antiproliferative activity against human PC-3 cells assessed as reduction in cell viability incubated for 72 hrs; assay type: functional, cell-based; conditions: PC-3, 72 h
A549 = assay: Antiproliferative activity against human A549 cells assessed as reduction in cell viability incubated for 72 hrs; assay type: functional, cell-based; conditions: A549, 72 h
[19] = target: T1, Serine/threonine-protein kinase PLK1; assay: Inhibition of 5-carboxyfluoresceinGPMQSpTPLNG-OH peptide binding to human PLK1 (326 to 603 residues) PBD expressed in Rosetta BL21 (DE3) cells preincubated for 1 hrs with compound followed by peptide addition and measured immediately by fluorescence polarization assay
[20] = target: T1, Serine/threonine-protein kinase PLK1; assay: Inhibition of 5-carboxyfluoresceinGPMQSpTPLNG-OH peptide binding to PLK1 (326 to 603 residues) PBD (unknown origin) preincubated for 1 hrs with compound followed by peptide addition and measured after 75 mins by fluorescence polarization assay
[21] = target: T3, Serine/threonine-protein kinase PLK2; assay: Inhibition of 5-carboxyfluorescein-GPMQTSpTPKNG-OH peptide binding to PLK2 (355 to 685 residues) PBD (unknown origin) preincubated for 1 hrs with compound followed by peptide addition and measured after 75 min by fluorescence polarization assay
[22] = target: T2, Serine/threonine-protein kinase PLK3; assay: Inhibition of 5-carboxyfluorescein-GPLATSpTPKNG-OH peptide binding to PLK3 (335 to 646 residues) PBD (unknown origin) at 100 uM preincubated for 1 hrs with compound followed by peptide addition and measured after 75 mins by fluorescence polarization assay; conditions: time 135.0 min
Target sequence in this assay (Q9H4B4 whole entry, looked up): as the sequence (Q9H4B4 whole entry) above

[23] = target: Serine/threonine-protein kinase PLK1 (Homo sapiens, UniProt P53350, T210D); assay: Inhibition of PLK1 T210D mutant kinase domain (unknown origin) using casein as substrate preincubated for 3 hrs followed by substrate addition and measured after 30 mins in the presence of ATP by ADP-Glo kinase assay
Serine/threonine-protein kinase PLK1 (Homo sapiens, UniProt P53350, T210D), sequence (P53350 2-603 T210D limits assumed): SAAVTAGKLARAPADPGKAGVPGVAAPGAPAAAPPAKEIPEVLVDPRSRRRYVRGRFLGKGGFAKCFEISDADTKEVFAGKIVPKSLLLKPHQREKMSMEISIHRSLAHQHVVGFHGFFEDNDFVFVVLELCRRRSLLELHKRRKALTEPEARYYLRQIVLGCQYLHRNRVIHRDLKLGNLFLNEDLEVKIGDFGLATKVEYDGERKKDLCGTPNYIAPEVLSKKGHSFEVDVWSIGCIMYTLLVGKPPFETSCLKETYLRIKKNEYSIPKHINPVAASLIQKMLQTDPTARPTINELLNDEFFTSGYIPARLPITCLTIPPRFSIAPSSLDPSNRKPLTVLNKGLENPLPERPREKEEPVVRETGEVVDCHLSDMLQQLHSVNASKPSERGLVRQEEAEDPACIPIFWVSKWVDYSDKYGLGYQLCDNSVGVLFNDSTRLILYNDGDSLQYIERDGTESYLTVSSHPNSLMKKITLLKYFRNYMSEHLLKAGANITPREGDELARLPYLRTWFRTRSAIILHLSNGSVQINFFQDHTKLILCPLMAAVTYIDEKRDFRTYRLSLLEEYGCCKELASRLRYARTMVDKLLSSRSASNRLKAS

[24] = target: T1, Serine/threonine-protein kinase PLK1; assay: Inhibition of human PLK1 in the presence of ATP

pIC50 [1]: 3.89
Structure (SMILES): CCCCCCCCCC1=CO[C@]2(C[C@H](C(=O)O)[C@@](CC(=O)O)(C(=O)O)O2)C1=O

pIC50 [2]: 4.40
pIC50 [3]: 3.50
pIC50 [4]: 5.05
Structure (SMILES): O=c1cc(-c2ccccc2)oc2cc(O)c(O)c(O)c12 [BAICALEIN]

pIC50 [5]: 5.23
Structure (SMILES): CC(=O)N1CCC[C@H]1C(=O)N[C@@H](CC(C)C)C(=O)N[C@@H](Cc1cncn1CCCCc1cn(Cc2ccc(Oc3ccccc3)cc2F)nn1)C(=O)N[C@@H](CO)C(=O)N[C@H](C(N)=O)[C@@H](C)OP(=O)(O)O (Ac-PL[X1]S[pT]-NH2)

solubility [6]: > 60 µg/mL
half-life [7]: > 30 min
Structure (SMILES): O=c1c2cc(F)ccc2n2c(=S)[nH]nc2n1CCc1ccccn1

pIC50 [8]: 6.00
Structure (SMILES): Cc1ccc(NC(=S)NCCNc2nccc(C(F)(F)F)n2)c(C)c1

inhibition [9]: 47%
pIC50 (HeLa [10]): 4.85
pIC50 [11]: 4.98
pIC50 [12]: 4.28
Structure (SMILES): CC1=C/C(=N/OC(=O)c2ccc(CNC(=O)CCc3cn(CCCCCCOCCOCCNC(=O)CC45CC6CC(CC(C6)C4)C5)nn3)cc2C)C(C)=CC1=O

pIC50 (MV4-11): 8.35
Structure (SMILES): CC[C@@H]1C(=O)N(C)c2cnc(Nc3ccc(C(=O)NCCOCCOCCNc4cccc5c4C(=O)N(C4CCC(=O)NC4=O)C5=O)cc3OC)nc2N1C1CCCC1 (stereo partly drawn)

pIC50 [13]: 5.35
Structure (SMILES): C[C@H](OP(=O)(O)O)[C@H](NC(=O)c1ccc2c(c1)nc(CCCCc1ccccc1)n2CCc1ccccc1)C(N)=O

solubility [6]: > 60 µg/mL
half-life [7]: 20.1 min
Structure (SMILES): COc1cccc(CC(=O)NCCCn2c(=O)c3cc(F)ccc3n3c(=S)[nH]nc23)c1

solubility [6]: > 60 µg/mL
half-life [7]: > 30 min
Structure (SMILES): O=c1c2cc(F)ccc2n2c(=S)[nH]nc2n1CC1CC1

inhibition [9]: 49%
pIC50 [14]: 5.87
pIC50 [12]: 4.85
Structure (SMILES): CC1=C/C(=N/OC(=O)c2ccccc2C)C(C)=CC1=O

pIC50 [15]: 4.73
Structure (SMILES): CC1=CC(=O)C(C(C)C)=C/C1=N/OC(=O)c1ccccc1C

solubility [6]: > 60 µg/mL
half-life [7]: > 30 min
Structure (SMILES): N#Cc1ccc(CC(=O)NCCCn2c(=O)c3cc(F)ccc3n3c(=S)[nH]nc23)cc1

pIC50 (HeLa [16]): 4.65
pIC50 [17]: 5.68
Structure (SMILES): COc1c2c(cc3c1C(CC(=O)c1ccccn1)[N+](C)(C)CC3)OCO2 (stereo not drawn)

pIC50 [2]: 2.29
pIC50 [3]: 3.02
pIC50 [4]: 4.99
Structure (SMILES): COc1cc(O)c2c(=O)cc(-c3ccccc3)oc2c1OC [Moslosooflavone]

solubility [6]: > 60 µg/mL
half-life [7]: > 30 min
Structure (SMILES): O=c1c2cc(F)ccc2n2c(=S)[nH]nc2n1CCc1ccncc1

pEC50 (HT-29): 5.30
pEC50 (MCF7): 4.92
pEC50 [18]: 9.70
pEC50 (U2OS): 5.30
pEC50 (HCT-15): 5.30
pEC50 (A-431): 4.48
pEC50 (SKW 6.4): 5.30
pEC50 (SK-OV-3): 5.30
pEC50 (PC-3): 5.30
pEC50 (A549): 5.30
Structure (SMILES): COc1ccc(CCNCc2ccc(OCc3ccc(Cl)nc3)c(OC)c2)cc1OC
pEC50 (Detroit 562): 5.30
pEC50 (LN-229): 5.30

pIC50 [1]: 3.99
Structure (SMILES): CCCCCCCCCC1=CO[C@]2(C[C@H](C(=O)O)[C@@](CC(=O)O)(C(=O)OCCCC)O2)C1=O

pIC50 [19]: 4.75
Structure (SMILES): N#Cc1cccc(CN2C[C@@H]3C[C@H](C2)c2c(-c4ccc5ccccc5c4)ccc(=O)n2C3)c1

Structure (SMILES): CC(=O)N1CCC[C@H]1C(=O)N[C@@H](CC(C)C)C(=O)N[C@@H](Cc1cn(CCCCCCCCc2ccccc2)nn1)C(=O)N[C@@H](CO)C(=O)N[C@H](C(N)=O)[C@@H](C)OP(=O)(O)O
pIC50 [5]: 6.16

pIC50 (HeLa [10]): 5.04
pIC50 [20]: 4.32
pIC50 [21]: 4.26
inhibition [22]: 34%
Structure (SMILES): CC1=C/C(=N/OC(=O)c2ccc(CNC(=O)CCc3cn(CCCCCCOCCOCCNC(=O)[C@H](C)CCC45CC6CC(CC(C6)C4)C5)nn3)cc2C)C(C)=CC1=O

pIC50 [8]: 4.70
Structure (SMILES): Cc1onc(-c2ccccc2)c1/C=C1\C(=O)Nc2ccccc21

solubility [6]: > 60 µg/mL
half-life [7]: > 30 min
Structure (SMILES): O=c1c2cc(F)ccc2n2c(=S)[nH]nc2n1CCC(F)(F)F

pIC50 [23]: 5.44
Structure (SMILES): O=C(O)[C@H]1O[C@@H](Oc2cc3oc(-c4ccccc4)cc(=O)c3c(O)c2O)[C@H](O)[C@@H](O)[C@@H]1O [BAICALIN]

pIC50 [24]: 7.82
Structure (SMILES): C=CCn1c(=O)c2cnc(Nc3ccc(N4CCN(C)CC4)cc3)nc2n1-c1cccc(C(C)(C)O)n1 [ADAVOSERTIB]

pIC50 [2]: 2.79
pIC50 [3]: 3.62
pIC50 [4]: 5.20
Structure (SMILES): O=C1C[C@@H](c2ccccc2)Oc2cc(O)c(O)c(O)c21
